According to patent US12226400B2, “Neuroprotective disruption of Kv2.1/syntaxin interaction by small molecules” (UNIVERSITY OF PITTSBURGH-OF THE COMMONWEALTH SYSTEM OF …, priority 2018, dated 2025):

Experiments:
[1] = test system: L5B corticocollicular neurons; assay: Slice electrophysiology, intrinsic properties of L5B corticocollicular neurons; type: cell-based, mouse; conditions: 10 min incubation in 10 μM cpd5
Protocol: (§1) Stereotaxic injections for electrophysiology. Male or female ICR mice P21-30 (Jackson Laboratory) were anesthetized with 3% isoflurane (1.5% maintenance) and placed on the stereotaxic frame (Kopf). Core body temperature was maintained at ˜37° C. with a heating pad and eyes were protected with ophthalmic ointment. Lidocaine (1%) was injected under the scalp and an incision was made into the skin at the midline to expose the skull. […] A volume of ˜0.12 μl fluorospheres was pressure injected (25 psi, 10 ms duration) from capillary pipettes (Drummond Scientific) with a Picospritzer (Parker-Hannifin). After injection, the pipette was held in the brain for 2 min before slowly withdrawing. The scalp of the mouse was closed with cyanoacrylate adhesive. Mice were injected with the non-steroidal anti-inflammatory drug carprofen at 5 mg/kg (Henry Schein Animal Health) for 24 hours prior to and 48 hours after surgery. Mice were monitored for signs of postoperative stress and pain.
Slice electrophysiology. Slice electrophysiology experiments were performed in mice at least 2 days after fluorospheres injections. Following anesthesia with isoflurane, mice were immediately decapitated. Brains were rapidly removed and coronal slices (300 μm) containing the auditory cortex were prepared in a cutting solution at 1° C. using a Vibratome (VT1200 S; Leica). For evoked EPSC recordings, the cutting solution, pH 7.4, ˜300 mOsm, contained the following (in mM): 2.5 KCl, 1.25 NaH2PO4, 25 NaHCO3, 0.5 CaCl2, 7 MgCl2, 7 Glucose, 205 sucrose, 1.3 ascorbic acid, and 3 sodium pyruvate (bubbled with 95% O2/5% CO2). For evaluation of corticocollicular neuron electrical properties, the cutting solution, pH ˜7.4, contained the following (in mM): 135 NMDG, 1 KCl, 1.2 KH2PO4, 1.5 MgCl2, 1.5 CaCl2, 20 NaHCO3, 10 D-Glucose. The slices were then transferred and incubated at 34° C. for 30 min (bubbled with 95% O2/5% CO2) prior to recording. The incubating and recording solution contained the following (in mM): 125 NaCl, 2.5 KCl, 1.25 NaH2PO4, 25 NaHCO3, 2 CaCl2, 1 MgCl2, 10 D-Glucose, 1.3 ascorbic acid, and 3 sodium pyruvate (bubbled with 95% O2/5% CO2). Slices were stored at room temperature until the time of recording. The flow rate of the ACSF was ˜1.5 ml/min, and its temperature was maintained at 34° C. using an in-line heating system (Warner). Both slice electrophysiology experiments were carried out using MultiClamp-700B amplifier equipped with Digidata-1440A A/D converter and Clampex (Molecular Devices). Data were sampled at 10 kHz and Bessel filtered at 4 kHz. Pipette capacitance was compensated and series resistance for recordings was lower than 15 MΩ and measured throughout the experiments. Recordings were excluded from further analysis if the series resistance changed by more than 15% compared to the baseline period.
All data for intrinsic properties were acquired and analyzed within the Ephus software package. Series resistance was determined in voltage-clamp mode (command potential set at −70 mV) by giving a −5 mV voltage step. […] The difference between baseline and steady-state hyperpolarized current (ΔI) was used to calculate Rinput using the following formula: Rinput=−5 mV/ΔI−Rseries. The average resting membrane potential (Vm) was calculated by holding the neuron in voltage-follower mode (current clamp, at I=0) ˜2 minutes after breaking in and averaging the membrane potential over the next 30 sec. Subthreshold and suprathreshold membrane responses in current clamp were elicited by injecting −200 to +400 pA in 50 pA increments (baseline Vm was maintained at −70 mV, by injecting the required current, if necessary). Sag was measured during the −200 pA current injection, using the formula, SAG=(Vmin−Vsteady-state)/Vsteady-state. The first resulting action potential (AP) at rheobase was analyzed for AP width. AP width was calculated as the full-width at the half-maximum amplitude of the AP. […]

[2] = test system: layer 2/3 corticocallosal neuron AMPAR EPSCs; assay: Slice electrophysiology, evoked AMPAR EPSCs in auditory cortex layer 2/3 corticocallosal neurons; type: cell-based, mouse
Protocol: as §1, with “Mice were injected with the non-steroidal anti-inflammatory drug carprofen at 5 mg/kg (Henry Schein Animal Health) for 24 hours prior to and 48 hours after surgery.” left out
Slice electrophysiology. […] Pipette capacitance was compensated and series resistance for recordings was lower than 15 MΩ and measured throughout the experiments. […]
To evoke AMPAR EPSCs, auditory cortex layer 2/3 neurons were stimulated locally with an Isoflex stimulator (AMPI), through a glass theta electrode containing ACSF, by a single 0.15 ms duration electrical pulse every 30 sec. AMPAR EPSCs were recorded in voltage clamp mode at −70 mV (peak values were averaged over a 0.3 ms time window). […]

[3] = test system: rat primary culture cortical neurons; assay: TBOA excitotoxicity assay (LDH release) in cortical neuron cultures; type: cell-based
Protocol: All animal protocols described here and below were approved by the Institutional Animal Care and Use Committee of the University of Pittsburgh School of Medicine. Cortical neurons were prepared from embryonic day 16-17 rats of either sex. Pregnant donor rats (Charles River Laboratories) were killed by gradual CO2 inhalation, an American Veterinary Medical Association approved protocol (Leary et al., 2013). Cortices were dissociated with trypsin, and plated at 670,000 cells per well on poly-L-ornithine glass coverslips in six-well plates. Non-neuronal cell proliferation was inhibited with 1-2 μM cytosine arabinoside at 15 days in vitro (DIV). All cortical culture experiments shown here were performed on 18-25 DIV cultures.
DL-threo-β-benzyloxaspartate (TBOA; Tocris Bioscience) excitotoxicity assays were performed on cortical culture coverslips transferred into 24-well plates containing 10 mM HEPES, 0.01% bovine serum albumin (BSA)-supplemented MEM without phenol red (MHB). […] Following this exposure, external medium was collected for LDH colorimetric measurements using a toxicity kit (Sigma-Aldrich), as previously described 12. Each experiment contained three replicates of four conditions (with/without TBOA, with/without treatment). Relative toxicity was quantified as the LDH ratio of TBOA-treated over vehicle control values within each experiment. […]

[4] = test system: primary rat cortical neuron cultures; assay: LDH toxicity assay screening for innate toxicity; type: cell-based; conditions: up to 30 μM for 24 hr

SMILES: COc1ccc(CNC(=O)Nc2cccc(-c3nc4ccccc4s3)c2)cc1OC [cpd5, 3-[3-(1,3-benzothiazol-2-yl)phenyl]-1-[(3,4-dimethoxyphenyl)methyl]urea]
- action potential threshold [1]: no significant effect
- action potential width [1]: no significant effect
- firing rate [1]: no significant effect
- input resistance [1]: lack of significant effect
- resting membrane potential [1]: lack of significant effect
- sag ratio (V2/V1) [1]: lack of significant effect
- AMPAR EPSCs amplitude normalized to control ([2]; 10 μM cpd5, p=0.153): 97.6±0.9%
- threshold, amplitude or duration of evoked synaptic potentials ([2]; Cpd5 10 μM, cortical layer 2/3 projection neurons, acute slices): No significant differences
- TBOA toxicity (neuroprotection) ([3]; 10 μM Cpd5, pre-loading 1 hr and co-incubation, overnight TBOA 60 μM): significantly diminished TBOA toxicity
- relative toxicity (LDH ratio of TBOA-treated over vehicle control) ([3]; 10 μM compound, 1 hr preincubation and coincubation, 75 μM TBOA, 24 hr, mean±SEM): 1.84±0.42
- innate toxicity (LDH) [4]: no innate toxicity
- innate toxicity (LDH) ([4]; listed as Cpd5): No neurotoxicity was observed
